pEC50: −log10 of the molar value.
Assays:
established tumors = details: preclinical mouse models; cited from earlier work
human STING = human STING (Homo sapiens, UniProt Q86WV6); details: cited from earlier work
[1] = test system: IRF3 activation in THP-1 Dual Cells; test: IRF3 activation assay in THP-1 Dual Cells (QUANTI-Blue readout); assay type: cell-based; details: Homo sapiens, THP1-Dual, 24 h
Summary of the method: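 THP-1 Dual cells (100,000/well) were incubated with serially diluted compounds 24 h at 37 °C. […]; EC50 from percent control activity versus log concentration.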

Sequence of human STING (Q86WV6 whole entry H232R): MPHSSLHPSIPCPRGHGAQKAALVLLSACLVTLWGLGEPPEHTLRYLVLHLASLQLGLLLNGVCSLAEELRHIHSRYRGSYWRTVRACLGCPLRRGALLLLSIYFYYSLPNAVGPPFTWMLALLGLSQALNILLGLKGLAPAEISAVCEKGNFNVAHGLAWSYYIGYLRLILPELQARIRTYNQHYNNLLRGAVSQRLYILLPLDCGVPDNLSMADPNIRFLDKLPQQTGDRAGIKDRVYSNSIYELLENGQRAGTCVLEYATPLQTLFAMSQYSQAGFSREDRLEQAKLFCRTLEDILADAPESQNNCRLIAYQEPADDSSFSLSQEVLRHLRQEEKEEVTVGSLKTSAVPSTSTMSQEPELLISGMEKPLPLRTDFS

| Compound | anti-tumor activity (established tumors) | bind and activate human STING (human STING) | pEC50 ([1]; Table 1, 24 hours incubation) | pEC50 ([1]; Table 2, 24 hours incubation) |
| --- | --- | --- | --- | --- |
| Cc1ccc2c(=O)c3cccc(CC(=O)O)c3oc2c1C [DMXAA, 5,6-dimethylxanthenone-4-acetic acid] | excellent anti-tumor activity | not human STING | – | – |
| CCn1nc(C)cc1C(=O)Nc1nc2cc(C(N)=O)cc(OCCCO)c2n1C/C=C/Cn1c2nc(-c3cc(C)nn3CC)ncc2c2cc(C(N)=O)cc(OC)c21 [Example 16, (E)-9-(4-(5-carbamoyl-2-(1-ethyl-3-methyl-1H-pyrazole-5-carboxamido)-7-(3-hydroxypropoxy)-1H-benzo[d]imidazol-1-yl)but-2-en-1-yl)-2-(1-ethyl-3-methyl-1H-pyrazol-5-yl)-8-methoxy-9H-pyrimido[4,5-b]indole-6-carboxamide] | – | – | > 6.70 | > 7.30 |
| CCn1nc(C)cc1C(=O)Nc1nc2cc(C(N)=O)cc(C)c2n1C/C=C/Cn1c2ccc(C(N)=O)cc2c2cnc(-c3cc(C(F)(F)F)nn3CC)nc21 [Example 9, (E)-9-(4-(5-carbamoyl-2-(1-ethyl-3-methyl-1H-pyrazole-5-carboxamido)-7-methyl-1H-benzo[d]imidazol-1-yl)but-2-enyl)-2-(1-ethyl-3-(trifluoromethyl)-1H-pyrazol-5-yl)-9H-pyrimido[4,5-b]indole-6-carboxamide] | – | – | > 6.00 | 6.30 to 6.70 |
| CCn1nc(C)cc1C(=O)Nc1nc2cc(C(N)=O)cc(OCCCN3CCN(C)CC3)c2n1C/C=C/Cn1c2nc(-c3cc(C)nn3CC)ncc2c2cc(C(N)=O)cc(OCCCOC)c21 [Example 31, (E)-9-(4-(5-carbamoyl-2-(1-ethyl-3-methyl-1H-pyrazole-5-carboxamido)-7-(3-(4-methylpiperazin-1-yl)propoxy)-1H-benzo[d]imidazol-1-yl)but-2-en-1-yl)-2-(1-ethyl-3-methyl-1H-pyrazol-5-yl)-8-(3-methoxypropoxy)-9H-pyrimido[4,5-b]indole-6-carboxamide] | – | – | – | 6.70 to 7.30 |
| CCn1nc(C)cc1C(=O)Nc1nc2cc(C(N)=O)cc(OCCCOC(=O)c3cc(C)nn3CC)c2n1C/C=C/Cn1c2nc(-c3cc(C)nn3CC)ncc2c2cc(C(N)=O)cc(OCCCN3CCOCC3)c21 [Example 19, (E)-3-((5-carbamoyl-1-(4-(6-carbamoyl-2-(1-ethyl-3-methyl-1H-pyrazol-5-yl)-8-(3-morpholinopropoxy)-9H-pyrimido[4,5-b]indol-9-yl)but-2-en-1-yl)-2-(1-ethyl-3-methyl-1H-pyrazole-5-carboxamido)-1H-benzo[d]imidazol-7-yl)oxy)propyl 1-ethyl-3-methyl-1H-pyrazole-5-carboxylate] | – | – | > 6.70 | > 7.30 |
| CCn1nc(C)cc1C(=O)Nc1nc2cc(C(N)=O)cc(C)c2n1C/C=C/Cn1c2nc(-c3cc(C)nn3CC)ccc2c2cc(C(N)=O)cc(OC)c21 [Example 14, (E)-9-(4-(5-carbamoyl-2-(1-ethyl-3-methyl-1H-pyrazole-5-carboxamido)-7-methyl-1H-benzo[d]imidazol-1-yl)but-2-enyl)-2-(1-ethyl-3-methyl-1H-pyrazol-5-yl)-8-methoxy-9H-pyrido[2,3-b]indole-6-carboxamide] | – | – | > 6.70 | > 7.30 |
| CCn1nc(C)cc1C(=O)Nc1nc2cc(C(N)=O)cc(OCCCNC(=O)[C@H](CC(=O)O)NC(=O)[C@H](CC(=O)O)NC(=O)[C@H](CCCNC(=N)N)NC(=O)[C@@H](N)CC(=O)O)c2n1C/C=C/Cn1c2nc(-c3cc(C)nn3CC)ncc2c2cc(C(N)=O)cc(OCCCOC)c21 [Example 37, (6S,9S,12S,15S)-15-amino-1-((5-carbamoyl-1-((E)-4-(6-carbamoyl-2-(1-ethyl-3-methyl-1H-pyrazol-5-yl)-8-(3-methoxypropoxy)-9H-pyrimido[4,5-b]indol-9-yl)but-2-en-1-yl)-2-(1-ethyl-3-methyl-1H-pyrazole-5-carboxamido)-1H-benzo[d]imidazol-7-yl)oxy)-6,9-bis(carboxymethyl)-12-(3-guanidinopropyl)-5,8,11,14-tetraoxo-4,7,10,13-tetraazaheptadecan-17-oic Acid] | – | – | – | 6.30 to 6.70 |
| CCn1nc(C)cc1C(=O)Nc1nc2cc(C(N)=O)cc(C)c2n1C/C=C/Cn1c2ccc(C(N)=O)cc2c2ccc(-c3cc(C)nn3CC)nc21 [Example 5, (E)-9-(4-(5-carbamoyl-2-(1-ethyl-3-methyl-1H-pyrazole-5-carboxamido)-7-methyl-1H-benzo[d]imidazol-1-yl)but-2-en-1-yl)-2-(1-ethyl-3-methyl-1H-pyrazol-5-yl)-9H-pyrido[2,3-b]indole-6-carboxamide] | – | – | > 6.00 | 6.70 to 7.30 |
| CCn1nc(C)cc1C(=O)Nc1nc2cc(C(N)=O)cc(OCCCOC(=O)c3cc(C)nn3CC)c2n1C/C=C/Cn1c2ccc(C(N)=O)cc2c2cnc(-c3cc(C)nn3CC)nc21 [Example 17, (E)-3-((5-carbamoyl-1-(4-(6-carbamoyl-2-(1-ethyl-3-methyl-1H-pyrazol-5-yl)-9H-pyrimido[4,5-b]indol-9-yl)but-2-en-1-yl)-2-(1-ethyl-3-methyl-1H-pyrazole-5-carboxamido)-1H-benzo[d]imidazol-7-yl)oxy)propyl 1-ethyl-3-methyl-1H-pyrazole-5-carboxylate] | – | – | > 6.70 | > 7.30 |
| CCCn1nc(C)cc1-c1ncc2c3cc(C(N)=O)ccc3n(C/C=C/Cn3c(NC(=O)c4cc(C)nn4CC)nc4cc(C(N)=O)cc(C)c43)c2n1 [Example 6, (E)-9-(4-(5-carbamoyl-2-(1-ethyl-3-methyl-1H-pyrazole-5-carboxamido)-7-methyl-1H-benzo[d]imidazol-1-yl)but-2-enyl)-2-(3-methyl-1-propyl-1H-pyrazol-5-yl)-9H-pyrimido[4,5-b]indole-6-carboxamide] | – | – | > 6.70 | > 7.30 |
